# Experimental data from patent US11873298B2, “Compounds and uses thereof” (JANSSEN PHARMACEUTICA NV, priority 2017, dated 2024).
# pIC50: −log10 of the molar value. Where “and” joins values, the source holds several entries; their conditions need not be identical. Identical values can stand only once.
# Assays:
# Assay type in all cases: cell-based
# Ole1 = biological target: T1, Ole1 (Saccharomyces cerevisiae, UniProt P21147); test: Growth inhibition of yeast strain expressing Ole1 as sole desaturase; conditions: yeast strain expressing Ole1 as sole desaturase
# T1 construct: expressed in transfected cells; host or cells: S. cerevisiae ole1Δ strain (W303 pdr1Δ pdr3Δ background), plasmid pRS316 with TDH3 promoter and CYC1 terminator
# T1 sequence (P21147 1-510): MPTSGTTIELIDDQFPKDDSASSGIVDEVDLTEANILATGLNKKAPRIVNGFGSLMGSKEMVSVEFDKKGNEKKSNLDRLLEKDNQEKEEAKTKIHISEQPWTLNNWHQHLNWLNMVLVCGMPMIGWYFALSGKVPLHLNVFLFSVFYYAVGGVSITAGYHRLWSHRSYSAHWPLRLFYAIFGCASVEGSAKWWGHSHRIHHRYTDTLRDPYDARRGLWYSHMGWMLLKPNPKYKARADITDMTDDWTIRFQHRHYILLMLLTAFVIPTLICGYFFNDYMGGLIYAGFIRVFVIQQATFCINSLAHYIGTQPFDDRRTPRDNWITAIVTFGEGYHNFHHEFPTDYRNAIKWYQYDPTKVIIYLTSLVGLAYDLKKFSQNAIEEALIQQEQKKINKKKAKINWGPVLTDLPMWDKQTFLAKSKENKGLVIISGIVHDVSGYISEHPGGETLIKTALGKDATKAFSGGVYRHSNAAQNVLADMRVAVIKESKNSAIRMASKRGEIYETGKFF
# Protocol: Strain oleΔ (yeast ole1 deletion mutant) was constructed by deleting OLE1 with NAT-MX6 in BY4741, amplifying the deletion cassette from the genomic DNA of the resulting strain with primers flanking the ORF by 1000 bp upstream and downstream, transforming the resulting deletion cassette into W303 pdr1Δ pdr3Δ, and plating transformants on YPD media containing G418 (200 μg/mL) and nourseothricin ([…]) with 0.01% TWEEN®-20 and 0.5 mM oleic and palmitoleic acids.
# The coding sequence of yeast OLE1 was also cloned into this plasmid). These clones were then transformed into the ole1Δ strain and plated on CSM-Ura media (CSM lacking uracil) with 2% glucose (w/v) and independent colonies were isolated and amplified.
# All compound profiling experiments were performed using the same basic protocol. Different genetic backgrounds (e.g., gene deletions) or conditions (e.g., addition of oleic and palmitoleic acid) were replaced as indicated below.
# Yeast were cultured using standard techniques in complete synthetic media (CSM) and yeast nitrogen base supplemented with 2% (w/v) carbon source (glucose, raffinose, or galactose) to regulate the expression of the toxic disease protein. An initial starter culture was inoculated in 3 mL CSM-Glucose media and incubated overnight in a 30° C. shaker incubator (225 rpm). Saturated morning cultures were then diluted 1:20 in fresh CSM-Raffinose media and grown for 6 h to an OD600 (optical density) of ˜0.4-0.8 at 30° C. with shaking.
# Compound administration was performed in two separate steps. First, 15 μL of CSM-Galactose (induces expression of toxic protein) was dispensed into clear 384 well assay plates using a MULTIDROP™ Combi reagent dispenser. […] The cultures described above were then diluted to a 2× concentration (0.03 and 0.08 for alpha-synuclein and ApoE, final ODsoo of 0.015 and 0.04) in CSM-Galactose. For wild-type and Ole1/SCD1/SCD5 plasmid-containing strains, the 2× cell density was 0.02. […] For 96-well assays (FIGS. 1A and 1B), compound dilutions in DMSO were generated in 96 well plates and 1 μL was manually pipetted into 96 well clear bottom assay plates.
# For experiments using a plasmid-borne copy of Ole1, SCD1, or SCD5 (FIGS. 3B, 6, and 7), media lacking uracil (SX-Ura, where X is glucose, raffinose, or galactose), was used for all steps of the compound profiling protocol to ensure its maintenance throughout the assay.
# After yeast delivery, assay plates were incubated under humidified conditions at 30° C. for 24 to 40 h. ApoE4 rescue experiments were stopped at 24 h, aSyn experiments at 40 h, Ole1 at 24 h, and SCD1/SCD5 at 40 h. The growth of yeast was monitored by reading the ODsoo of each well using a microplate reader (Perkin Elmer EnVision™).
# SCD1 = biological target: T2, SCD1 (Homo sapiens, UniProt O00767); test: Growth inhibition of humanized yeast strain expressing SCD1 as sole desaturase; conditions: humanized yeast strain expressing SCD1
# T2 construct: host or cells: S. cerevisiae ole1Δ strain (W303 pdr1Δ pdr3Δ background), plasmid pRS316 with TDH3 promoter and CYC1 terminator
# T2 sequence (O00767 1-359): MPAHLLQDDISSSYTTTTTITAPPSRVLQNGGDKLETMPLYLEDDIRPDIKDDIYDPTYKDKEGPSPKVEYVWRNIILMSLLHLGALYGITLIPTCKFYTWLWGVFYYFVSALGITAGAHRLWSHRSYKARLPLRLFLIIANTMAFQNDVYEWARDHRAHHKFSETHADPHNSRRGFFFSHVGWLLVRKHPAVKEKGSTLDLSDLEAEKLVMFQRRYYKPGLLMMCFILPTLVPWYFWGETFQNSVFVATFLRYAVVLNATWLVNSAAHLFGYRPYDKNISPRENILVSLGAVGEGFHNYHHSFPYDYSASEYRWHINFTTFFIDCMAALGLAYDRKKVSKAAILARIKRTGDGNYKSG
# In short: (§1)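 Measured by optical density at 600 nm, growth of desaturase-dependent yeast (OLE1 deleted; human SCD1, human SCD5 or yeast Ole1 supplied from plasmid) was scored after 24 h (Ole1) or 40 h (SCD1, SCD5) at 30° C. in galactose media lacking uracil with DMSO-delivered compound.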
# SCD5 = biological target: T3, SCD5 (Homo sapiens, UniProt Q86SK9); test: Growth inhibition of humanized yeast strain expressing SCD5 as sole desaturase; conditions: humanized yeast strain expressing SCD5
# T3 construct: host or cells: S. cerevisiae ole1Δ strain (W303 pdr1Δ pdr3Δ background), plasmid pRS316 with TDH3 promoter and CYC1 terminator
# T3 sequence (Q86SK9 1-330): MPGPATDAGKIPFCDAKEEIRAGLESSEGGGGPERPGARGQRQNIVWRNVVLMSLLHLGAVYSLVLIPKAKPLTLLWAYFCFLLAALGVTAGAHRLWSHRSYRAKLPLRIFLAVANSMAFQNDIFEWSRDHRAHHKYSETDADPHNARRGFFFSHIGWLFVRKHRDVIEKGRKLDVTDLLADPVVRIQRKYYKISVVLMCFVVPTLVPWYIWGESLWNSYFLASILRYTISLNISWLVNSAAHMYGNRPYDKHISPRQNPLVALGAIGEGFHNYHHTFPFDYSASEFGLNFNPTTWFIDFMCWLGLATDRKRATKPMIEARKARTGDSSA
# In short: as §1
smiles,measurement,setting,value
CCOc1ccc(-c2noc(C3CCN(C(=O)CN4Cc5ccc(F)cc5C4=O)CC3)n2)cc1OC [Compound 177],pIC50,Ole1,< 4.35
same,OLE1 % Max Inhibition,Ole1,40.70%
same,pIC50,SCD1,< 4.35
same,SCD1 % Max Inhibition,SCD1,97.88%
same,pIC50,SCD5,< 4.35
same,SCD5 % Max Inhibition,SCD5,86.13%
CCOc1ccc(-c2noc(C3CCN(C(=O)CN4Cc5cccc(F)c5C4=O)CC3)n2)cc1OC [Compound 178],pIC50,Ole1,< 4.35
same,OLE1 % Max Inhibition,Ole1,7.39%
same,pIC50,SCD1,< 4.35
same,SCD1 % Max Inhibition,SCD1,114.07%
same,pIC50,SCD5,< 4.35
same,SCD5 % Max Inhibition,SCD5,85.67%
Cc1ccc(N2CC(C(=O)N3CCC(c4nc(-c5ccc6c(C)nn(C)c6c5)no4)CC3)CC2=O)cn1 (stereo not drawn) [Compound 179],pIC50,Ole1,4.41
same,OLE1 % Max Inhibition,Ole1,76.70%
same,pIC50,SCD1,< 4.35
same,SCD1 % Max Inhibition,SCD1,106.53%
same,pIC50,SCD5,< 4.35
same,SCD5 % Max Inhibition,SCD5,85.02%
CC(C)n1cc2ccc(-c3noc(C4CCN(C(=O)C5CC(=O)N(c6ccccc6)C5)CC4)n3)cc2n1 (stereo not drawn) [Compound 180],pIC50,Ole1,< 4.35
same,OLE1 % Max Inhibition,Ole1,107.78%
same,pIC50,SCD1,< 4.35
same,SCD1 % Max Inhibition,SCD1,102.85%
same,pIC50,SCD5,< 4.35
same,SCD5 % Max Inhibition,SCD5,82.28%
CC(C)n1cc2ccc(-c3noc(C4CCN(C(=O)CNC(=O)c5ccccc5)CC4)n3)cc2n1 [Compound 181],pIC50,Ole1,< 4.35
same,OLE1 % Max Inhibition,Ole1,20.70%
same,pIC50,SCD1,< 4.35
same,SCD1 % Max Inhibition,SCD1,88.32%
same,pIC50,SCD5,< 4.35
same,SCD5 % Max Inhibition,SCD5,81.40%
O=C(CN1Cc2ccccc2C1=O)N1CCC(c2nc(-c3ccc4nonc4c3)no2)CC1 [Compound 182],pIC50,Ole1,< 4.35
same,OLE1 % Max Inhibition,Ole1,124.27%
same,pIC50,SCD1,< 4.35
same,SCD1 % Max Inhibition,SCD1,113.27%
same,pIC50,SCD5,< 4.35
same,SCD5 % Max Inhibition,SCD5,79.82%
Cc1cc(N2CC(C(=O)N3CCC(c4nc(-c5ccc6c(C)nn(C)c6c5)no4)CC3)CC2=O)ccn1 (stereo not drawn) [Compound 183],pIC50,Ole1,< 4.35
same,OLE1 % Max Inhibition,Ole1,101.71%
same,pIC50,SCD1,< 4.35
same,SCD1 % Max Inhibition,SCD1,101.67%
same,pIC50,SCD5,< 4.35
same,SCD5 % Max Inhibition,SCD5,84.88%
Cc1ccc(N2CC(C(=O)N3CCC(c4nc(-c5ccc6c(C)nn(C)c6c5)no4)CC3)CC2=O)nc1 (stereo not drawn) [Compound 184],pIC50,Ole1,< 4.35
same,OLE1 % Max Inhibition,Ole1,3.07% and 0.87%
same,pIC50,SCD1,< 4.35
same,SCD1 % Max Inhibition,SCD1,86.33% and 50.65%
same,pIC50,SCD5,< 4.35
same,SCD5 % Max Inhibition,SCD5,2.41% and 11.92%
COc1ccc(-c2noc(C3CCN(C(=O)[C@@H](CO)NC(=O)c4ccccc4)CC3)n2)cc1OC [Compound 185],pIC50,Ole1,< 4.35
same,OLE1 % Max Inhibition,Ole1,93.51%
same,pIC50,SCD1,< 4.35
same,SCD1 % Max Inhibition,SCD1,97.91%
same,pIC50,SCD5,< 4.35
same,SCD5 % Max Inhibition,SCD5,72.91%
Cc1nn(C)c2cc(-c3noc(C4CCN(C(=O)[C@@H](CO)NC(=O)c5ccccc5)CC4)n3)ccc12 [Compound 186],pIC50,Ole1,< 4.35
same,OLE1 % Max Inhibition,Ole1,35.40%
same,pIC50,SCD1,< 4.35
same,SCD1 % Max Inhibition,SCD1,86.16%
same,pIC50,SCD5,4.52
same,SCD5 % Max Inhibition,SCD5,73.51%
